Data on one molecule can be found in US12208091B2, “Compounds for treatment of eye diseases associated with excessive vascularisation” (Active Biotech AB, priority 2019, dated 2025).

Experiment [1] concerns Human retinal microvascular endothelial cells (HRMECs). As to the kind of experiment: LPS-activated microglia-induced HRMEC tube formation (co-culture). To be noted: 10 μM; normalised to vehicle 0%, sulforaphane 100%. It counts as cell-based. The protocol: The following experimental groups were included in the study: • Group 1: […] Sulforaphane (10 μM, positive control, anti-angiogenic effects) • Group 3: Aflibercept (“Eylea” 40 μg/ml, positive control, partial anti-angiogenic effects) • Group 4: […] Human retinal microvascular endothelial cells (HRMECs) were purchased from Neuromics (Cat #HEC09, Lot #2872) and cultured according to manufacturer's instructions in Endo-Growth media (Cat #EKG001, Lot #EKG0011902269) supplemented with Endothelial Growth Factor (Cat #EKG001, Lot #EGK00125) on AlphaBiocoat coated T25 flasks at 37° C. 5% CO2. […] Human microglia were seeded onto PLL coated cell culture inserts (Sarstedt, Cat #83.3932.040) at 103 000 cells/cm^2. […] The method for co-cultures of microglia and HRMECs was modified from protocol described by Ding et al. 2018 (Ding X, Gu R, Zhang M, Ren H, Shu Q, Xu G, Wu H. Microglia enhanced the angiogenesis, migration and proliferation of co-cultured RMECs. […] PMID: 30223824; PMCID: PMC6142340) and Ji Cho et al. 2019 (Ji Cho M, Yoon […], Park J, Lee J, Park J G, Cho Y L, Hun Kim J, Jang H, Park Y J, Lee S H, Min J K. Oxidative stress-mediated TXNIP loss causes RPE dysfunction. […] PMID: 31615975; PMCID: PMC6802648). Microglia was activated with LPS (100 ng/ml) in microglia complete growth media without FBS with simultaneous treatment of freshly prepared study compounds, Eylea and vehicle for 24 hours. HRMECs were incubated in basal Endo-Growth media for 24 hours before co-culturing. […] Media in microglia inserts containing LPS was replaced to corresponding freshly prepared study compounds, aflibercept and sulforaphane in basal Endo-Growth media. […] 5% CO2, stained with calcein-AM (5 μM) for 30 min and imaged using a fluorescence microscope (Leica Thunder 3D Tissue Imager, Leica Microsystems). Images were analyzed using the AngioTool software (Zudaire E, Gambardella L, Kurcz […] Computational Tool for Quantitative Analysis of Vascular Networks. PLOS ONE 6(11): e27385. https://doi.org/10.1371/journal.pone.0027385) for ImageJ (NIH public domain). Total tube area, tube length, density, lacunarity, and branching index (number of junctions and endpoints) were quantified. Images were analyzed using AngioTool software (NIH, Bethesda, MD; available in the public domain) for the following readouts: average vessels length, total vessels length, vessel area, vessels percentage area, total number of junctions, density of junctions, total number of endpoints, and mean lacunarity. […] Raw data for each of the readouts was plotted and analyzed by ordinary one-way ANOVA with Dunnett's multiple comparisons post-hoc test. […] Effect size data were analyzed by non-parametric Kruskal-Wallis test, with Dunn's multiple comparisons post-hoc test.

In experiment [2] the test system is relapsing MS patients. The settings on record: clinical development program; cited from earlier work.
Experiment [3] relates to choroidal neovascularisation. Kind of experiment: Laser-induced choroidal neovascularisation rat model, fluorescein angiography leakage score. The class given is in vivo, Brown Norway pigmented rats. The arrangement: key to Mean score of fluorescein leakage: 0 = no leakage, 1 = slight, 2 = moderate, 3 = strongly stained. The procedure:
Forty-eight (48) Brown Norway pigmented rats were divided into six (6) groups of eight (8) animals. Choroidal neovascularization was induced using a 532 nm argon laser photocoagulator (six (6) 75 μm-sized spots at 150 mW for 0.1 sec duration) in the right eyes on Day 0. The test item was administered three times a day by instillation or twice a day by oral administration from Day 0 (DO) just after ChNV induction to Day 21 (last day of the study). Control item (vehicle) was instilled three times a day and the reference item (Dexamethasone in olive oil) was administered by daily oral administration from the Day 0 just after induction of neovascularization to Day 21. Fundus neovessels were evaluated in the right eyes on Days 14 and 21 using Heidelberg's Retinal Angiograph (HRA). Lesion size was determined on choroid flatmounts labelled with Isolectin-B4 at the end of the in vivo period.
On Day 0, animals were anesthetized by an intramuscular injection of a mix of xylazine (5 mg/kg) and ketamine (25 mg/kg). Pupils from the right eyes were dilated by instillation of one drop of 0.5% tropicamide. Then, six (6) choroidal burns (75 μm spot size) were done through a slit-lamp, with a contact lens, around the optic disc, between the main vessel branches using an argon laser photocoagulator (532 nm; 150 mW; 0.1 sec duration). Production of a bubble at the time of laser treatment confirmed the rupture of Bruch's membrane.
Test, control, or reference items were administered topically by instillation (10 μL each) or by oral route (1 mL/kg) from Day 0 (just after the induction) to Day 21 (end of the study). Test and control items were administered three times a day (for instillation) and two times a day (for oral administration). Reference item was administered once a day by oral route.
Fluorescein angiography was performed on Days 14 and 21 using an HRA (Heidelberg's Retinal Angiograph). After anaesthesia (same mix used for ChNV induction) and pupillary dilation, 250 μL/100 g (body weight) of a 10% sodium fluorescein was injected subcutaneously using a 26-G insulin syringe, and fluorescein photos were recorded 10 minutes after dye injection.
The leakage of fluorescein on the angiograms were evaluated by two examiners in a masked fashion and graded as follows: • Score 0, no leakage; • Score 1, slightly stained; • Score 2, moderately stained; • Score 3, strongly stained.
Statistical analysis, using Mann-Whitney U test or appropriate statistical model, were performed on the scoring of lesions visualized by HRA from each animal and on the scoring of the flat mounted preparations.
The grading of fluorescein angiographies (FA) was based on the fluorescence intensity for each lesion. For each treatment group, results were expressed as the group mean score per time-point. Table 1 summarises the evaluation of FA recorded at 10 min on Days 14 and 21 (n=8 animals per group, right eyes). A statistical analysis was performed on the median of the individual intensity scores, using a Kruskall-Wallis test followed by a Mann & Whitney U multiple comparison test, which was used to compare each test, control or reference group.

The mark [4] stands for this setting: Instillations 0.2% 3×/day, Day 14.
The mark [5] stands for this setting: Instillations 0.2% 3×/day, Day 21.
Where [6] appears, read: Instillations 1% 3×/day, Day 14.
Where [7] appears, read: Instillations 1% 3×/day, Day 21.
Where [8] appears, read: Instillations 5% 3×/day, Day 14.
Setting [9] is: Instillations 5% 3×/day, Day 21.

A value given as a limit tells only on which side of the number the result lay.

For `CCN(C(=O)c1c(O)c2c(Cl)cccc2n(C)c1=O)c1ccccc1` [laquinimod], in experiment [1], the “Normalized effect size on average vessel length” value is given as 53%. Also, the annual relapse rate entry in experiment [2] is “consistent clinical benefit”. The “% of reduction vs respective vehicle” value was 0% in experiment [3] (setting [4]); 18% in experiment [3] (setting [5]); under 0% in experiment [3] (setting [6]); under 0% in experiment [3] (setting [7]); 0% in experiment [3] (setting [8]); 63% in experiment [3] (setting [9]). Also, the “% of reduction vs respective vehicle” value is under 0% in experiment [3] (Per os 1 mg/kg 2×/day, Day 14) and 18% in experiment [3] (Per os 1 mg/kg 2×/day, Day 21). For the same molecule, the “Mean score of fluorescein leakage” value in experiment [3] (setting [4]) was found to be 0.7; in experiment [3] (setting [5]), 0.9; in experiment [3] (setting [6]) it was 1.1; in experiment [3] (setting [7]), 1.2; in experiment [3] (setting [8]) it was 0.7; in experiment [3] (setting [9]), 0.4. Besides, the “Mean score of fluorescein leakage” value in experiment [3] (Per os 1 mg/kg 2×/day, Day 14) amounted to 0.8; in experiment [3] (Per os 1 mg/kg 2×/day, Day 21), 0.9. The vascular leakage entry in experiment [3] (daily topical administration) is “effectively reduces vascular leakage”.
